Measurements as given in patent US7223773B2, “4-oxoquinolizine antibacterial agent having 2-pyridone skeleton as partial structure” (Salo Pharmaceutical Co., Ltd., priority 2001, dated 2007).
Values after ≈ are worked out from the molar mass of the structure shown.

Key:
Type in all cases: cell-based
[1] = tested on: Bacillus subtilis JCM 2499; assay: in vitro antibacterial activity, agar plate dilution method (MIC); conditions: JCM2499, read-out: Antimicrobial spectrum MIC
Experimental: (§1) The in vitro antibacterial activities of the compounds provided by the present invention were tested by a standard method of Chemotherapy Society of Japan, i.e. an agar plate dilution method disclosed in CHEMOTHERAPY Vol. 29, pages 76–79, 1981, and the activities of them on anaerobic bacteria were tested by a method disclosed in CHEMOTHERAPY Vol. 27, 559–590, 1979. The results were shown in terms of the minimum inhibition concentration (MIC, μg/ml) for the growth of the bacteria.

[2] = tested on: Branhamella catarrhalis IID 5233; assay: as above; conditions: Moraxella catarrhalis, IID5233, read-out: Antimicrobial spectrum MIC
Experimental: as §1

[3] = tested on: Enterococcus faecalis CSJ 1212; assay: as above; conditions: CSJ1212, read-out: Antimicrobial spectrum MIC
Experimental: as §1

[4] = tested on: Enterococcus faecalis RIMD 3116001; assay: as above; conditions: RIMD3116001, read-out: Antimicrobial spectrum MIC
Experimental: as §1

[5] = tested on: Escherichia coli IFO 12734; assay: as above; conditions: IFO12734, read-out: Antimicrobial spectrum MIC
Experimental: as §1

[6] = tested on: Haemophilus influenzae IID 984; assay: as above; conditions: IID984, read-out: Antimicrobial spectrum MIC
Experimental: as §1

[7] = tested on: Klebsiella pneumoniae IID 865; assay: as above; conditions: IID865, read-out: Antimicrobial spectrum MIC
Experimental: as §1

[8] = tested on: Micrococcus luteus KI 3122; assay: as above; conditions: KI3122, read-out: Antimicrobial spectrum MIC
Experimental: as §1

[9] = tested on: Pseudomonas aeruginosa CSJ 1853; assay: as above; conditions: CSJ1853, read-out: Antimicrobial spectrum MIC
Experimental: as §1

[10] = tested on: Staphylococcus aureus Clin-211(MRSA); assay: as above; conditions: read-out: Antimicrobial spectrum MIC
Experimental: as §1

[11] = tested on: Staphylococcus aureus IFO 13276; assay: as above; conditions: IFO13276, read-out: Antimicrobial spectrum MIC
Experimental: as §1

[12] = tested on: Staphylococcus aureus IID 803(Smith); assay: as above; conditions: IID803, read-out: Antimicrobial spectrum MIC
Experimental: as §1

[13] = tested on: Staphylococcus aureus JCM 2874; assay: as above; conditions: JCM2874, read-out: Antimicrobial spectrum MIC
Experimental: as §1

[14] = tested on: Staphylococcus epidermidis IFO 12993; assay: as above; conditions: IFO12993, read-out: Antimicrobial spectrum MIC
Experimental: as §1

[15] = tested on: Streptococcus pneumoniae IID 553; assay: as above; conditions: IID553, read-out: Antimicrobial spectrum MIC
Experimental: as §1

[16] = tested on: Bacteroides fragilis GAI 0675; assay: in vitro antibacterial activity on anaerobic bacteria (MIC); conditions: GAI0675; Bacteroides fragilis GAI 0675, anaerobic; read-out: Antimicrobial spectrum MIC
Experimental: as §1

[17] = tested on: Bacteroides thetaiotaomicron ATCC 29741; assay: as above; conditions: ATCC29741; Bacteroides thetaiotaomicron ATCC 29741, anaerobic; read-out: Antimicrobial spectrum MIC
Experimental: as §1

[18] = tested on: Propionibacterium acnes JCM 6425; assay: as above; conditions: Cutibacterium acnes, JCM6425; Propionibacterium acnes JCM 6425, anaerobic; read-out: Antimicrobial spectrum MIC
Experimental: as §1

| MIC [1] [µg/mL] | MIC [2] [µg/mL] | MIC [3] [µg/mL] | MIC [4] [µg/mL] | MIC [5] [µg/mL] | MIC [6] [µg/mL] | MIC [7] [µg/mL] | MIC [8] [µg/mL] | MIC [9] [µg/mL] | MIC [10] [µg/mL] | MIC [11] [µg/mL] | MIC [12] [µg/mL] | MIC [13] [µg/mL] | MIC [14] [µg/mL] | MIC [15] [µg/mL] | MIC [16] [µg/mL] | MIC [17] [µg/mL] | MIC [18] [µg/mL] | SMILES |
| --- | --- | --- | --- | --- | --- | --- | --- | --- | --- | --- | --- | --- | --- | --- | --- | --- | --- | --- |
| ≤ 0.004 | 0.031 (≈ 0.09 µM) | 0.25 (≈ 0.726 µM) | 0.25 (≈ 0.726 µM) | 0.25 (≈ 0.726 µM) | 0.063 (≈ 0.183 µM) | 0.031 (≈ 0.09 µM) | 0.125 (≈ 0.363 µM) | 0.5 (≈ 1.45 µM) | 0.125 (≈ 0.363 µM) | 0.016 (≈ 0.0465 µM) | 0.008 (≈ 0.0232 µM) | 0.016 (≈ 0.0465 µM) | 0.016 (≈ 0.0465 µM) | 0.5 (≈ 1.45 µM) | 0.125 (≈ 0.363 µM) | 0.5 (≈ 1.45 µM) | 0.063 (≈ 0.183 µM) | Cc1c(-c2ccc(C#N)cc2)ccn2c(=O)c(C(=O)O)cc(C3CC3)c12 [Example 36, 8-(4-Cyanophenyl)-1-cyclopropyl-9-methyl-4-oxo-4H-quinolizine-3-carboxylic acid] |
| ≤ 0.004 | 0.016 (≈ 0.0425 µM) | 0.125 (≈ 0.332 µM) | 0.125 (≈ 0.332 µM) | 0.125 (≈ 0.332 µM) | 0.125 (≈ 0.332 µM) | 0.031 (≈ 0.0824 µM) | 0.125 (≈ 0.332 µM) | 2 (≈ 5.31 µM) | 0.063 (≈ 0.167 µM) | 0.008 (≈ 0.0213 µM) | ≤ 0.004 | ≤ 0.004 | 0.016 (≈ 0.0425 µM) | 0.125 (≈ 0.332 µM) | 0.063 (≈ 0.167 µM) | 0.25 (≈ 0.664 µM) |  | CC(=NO)c1ccc(-c2ccn3c(=O)c(C(=O)O)cc(C4CC4)c3c2C)cc1 [Example 38, 1-Cyclopropyl-8-[4-(1-hydroxyiminoethyl)phenyl]-9-methyl-4-oxo-4H-quinolizine-3-carboxylic acid] |
| ≤ 0.004 | 0.016 (≈ 0.0423 µM) | 0.063 (≈ 0.166 µM) | 0.063 (≈ 0.166 µM) | 0.125 (≈ 0.33 µM) | 0.031 (≈ 0.0819 µM) | 0.063 (≈ 0.166 µM) | 0.125 (≈ 0.33 µM) | 1 (≈ 2.64 µM) | 0.031 (≈ 0.0819 µM) | ≤ 0.004 | ≤ 0.004 | ≤ 0.004 | 0.008 (≈ 0.0211 µM) | 0.125 (≈ 0.33 µM) | 0.125 (≈ 0.33 µM) | 0.25 (≈ 0.661 µM) | 0.016 (≈ 0.0423 µM) | Cc1c(-c2ccc(NCCO)cc2)ccn2c(=O)c(C(=O)O)cc(C3CC3)c12 [Example 46, 1-cyclopropyl-8-[4-(2-hydroxyethylamino)phenyl]-9-methyl-4-oxo-4H-quinolizine-3-carboxylic acid] |
|  | 0.031 (≈ 0.088 µM) | 0.125 (≈ 0.355 µM) | 0.25 (≈ 0.709 µM) | 0.063 (≈ 0.179 µM) | 0.031 (≈ 0.088 µM) | 0.031 (≈ 0.088 µM) | 0.125 (≈ 0.355 µM) | 0.25 (≈ 0.709 µM) | 0.063 (≈ 0.179 µM) | 0.016 (≈ 0.0454 µM) | ≤ 0.004 | ≤ 0.004 | 0.016 (≈ 0.0454 µM) | 0.25 (≈ 0.709 µM) | 0.031 (≈ 0.088 µM) | 0.125 (≈ 0.355 µM) | 0.031 (≈ 0.088 µM) | Cc1c(-c2ccc(N)c(F)c2)ccn2c(=O)c(C(=O)O)cc(C3CC3)c12 [Example 97, 8-(4-amino-3-fluorophenyl)-1-cyclopropyl-9-methyl-4-oxo-4H-quinolizine-3-carboxylic acid] |
|  | 0.031 (≈ 0.0774 µM) | 0.063 (≈ 0.157 µM) | 0.125 (≈ 0.312 µM) | 0.063 (≈ 0.157 µM) | 0.008 (≈ 0.02 µM) | 0.008 (≈ 0.02 µM) | 0.25 (≈ 0.624 µM) | 0.25 (≈ 0.624 µM) | 0.25 (≈ 0.624 µM) | 0.016 (≈ 0.04 µM) | 0.016 (≈ 0.04 µM) | 0.031 (≈ 0.0774 µM) | 0.031 (≈ 0.0774 µM) | 0.125 (≈ 0.312 µM) | 0.25 (≈ 0.624 µM) | 0.5 (≈ 1.25 µM) | 0.125 (≈ 0.312 µM) | CCOC(=O)c1cc(C2CC2)c2c(C)c(-c3cc(F)c(CN)s3)ccn2c1=O [Example 111, Ethyl 8-(5-aminomethyl-4-fluorothiophen-2-yl)-1-cyclopropyl-9-methyl-4-oxo-4H-quinolizine-3-carboxylate] |
| 0.016 (≈ 0.0473 µM) | 0.125 (≈ 0.369 µM) | 0.5 (≈ 1.48 µM) | 0.5 (≈ 1.48 µM) | 0.063 (≈ 0.186 µM) | 0.031 (≈ 0.0916 µM) | 0.008 (≈ 0.0236 µM) | 0.25 (≈ 0.739 µM) | 1 (≈ 2.96 µM) |  | 0.031 (≈ 0.0916 µM) |  | 0.063 (≈ 0.186 µM) |  | 0.5 (≈ 1.48 µM) | 1 (≈ 2.96 µM) | 2 (≈ 5.91 µM) |  | Cc1c(-c2ccc(CN)o2)ccn2c(=O)c(C(=O)O)cc(C3CC3)c12 [Example 113, 8-(5-Aminomethylfuran-2-yl)-1-cyclopropyl-9-methyl-4-oxo-4H-quinolizine-3-carboxylic acid] |
